Columns and labels:
KRAS G12D = KRAS G12D (Homo sapiens, UniProt P01116, G12D); assay: GDP-GTP exchange assay (KRAS G12D); format: biochemical; details: bodipy-GDP/GppNHp exchange with SOS1; 4 h pre-incubation, 2 h reaction;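 further: one dagger IC50 up to 100 nM and two daggers above 100 nM up to 1 μM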
In short: (§1)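 IC50 came from a four-parameter fit of fluorescence loss (485/520 nm) as SOS1 (150 nM) swapped bodipy-GDP for GppNHp (500 μM) on 2.5 nM KRAS, final concentrations. Compounds were pre-incubated 4 h at r.t. (pH 7.5 Hepes, 10 mM MgCl2); exchange ran 2 h (G12D) or 3 h (G12V).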

KRAS G12V = KRAS G12V (Homo sapiens, UniProt P01116, G12V); assay: GDP-GTP exchange assay (KRAS G12V); format: biochemical; details: bodipy-GDP/GppNHp exchange with SOS1; 3 h incubation after GppNHp-SOS1;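 further: one dagger IC50 up to 100 nM and two daggers above 100 nM up to 1 μM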
In short: as §1

[1] = Caco2 assay (permeability, Papp A-B); format: in vitro ADME; details: human, Caco-2, absorptive direction (A-B), 50 μM test compound, 4% BSA in receiver
Procedure: Caco-2 cells are grown at 37° C. in an atmosphere of 5% CO2 in DMEM growth medium supplemented with 10% (v/v) fetal bovine serum, 1% (v/v) nonessential amino acids, penicillin (100 U/mL), and streptomycin (100 μg/mL). Confluent cell monolayers are subcultured every 7 days or 4 days for Caco-2 by treatment with 0.05% trypsin containing […]. Caco-2 cells are seeded in 96-well Transwell plates. The seeding density for Caco-2 cells is 14,000 cells/well. DMEM growth medium is replaced every other day after seeding. Cell monolayers are used for transport assays between 22 and 25 days for Caco-2 cells.
Cell culture medium is removed and replaced with HBSS. To measure the TEER, the HBSS is added into the donor compartment (apical side) and receiver compartment (basolateral side). The TEER is measured by using a REMS Autosampler to ensure the integrity of the cell monolayers. Caco-2 cell monolayers with TEER values 300 Ω·cm^2 are used for transport experiments. To determine the Papp in the absorptive direction (A-B), solution of test compound (50 μM) in HBSS is added to the donor compartment (apical side), while HBSS solution with 4% BSA is added to the receiver compartment (basolateral side). The apical volume was 0.075 mL, and the basolateral volume is 0.25 mL. The incubation period is 120 min. at 37° C. in an atmosphere of 5% CO2. At the end of the incubation period, samples from the donor and receiver sides are removed and an equal volume of MeCN is added for protein precipitation. The supernatants are collected after centrifugation (3000 rpm, Allegra X-14R Centrifuge from Beckman Coulter, Indianapolis, IN) for LCMS analysis. The permeability value is determined according to the equation:
Papp(cm/s)=(F*VD)/(SA*MD),
where the flux rate (F, mass/time) is calc. from the slope of cumulative amounts of compound of interest on the receiver side, SA is the surface area of the cell membrane, VD is the donor volume, and MD is the initial amount of the solution in the donor chamber.
The symbol “+” indicates a Caco-2 value of ≤0.5, “++” indicates a Caco-2 value of >0.5 but ≤1; and “+++” indicates a Caco-2 value of >1. “NA” indicates Caco-2 value not available.

KRAS G12V, sequence (P01116 1-188 isoform P01116-2 G12V): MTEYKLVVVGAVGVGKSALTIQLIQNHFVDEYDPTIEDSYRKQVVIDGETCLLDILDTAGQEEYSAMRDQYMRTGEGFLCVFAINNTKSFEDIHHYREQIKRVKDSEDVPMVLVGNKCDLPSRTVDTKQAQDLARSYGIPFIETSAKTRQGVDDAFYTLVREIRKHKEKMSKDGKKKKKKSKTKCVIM
KRAS G12D, sequence (P01116 1-188 isoform P01116-2 G12D): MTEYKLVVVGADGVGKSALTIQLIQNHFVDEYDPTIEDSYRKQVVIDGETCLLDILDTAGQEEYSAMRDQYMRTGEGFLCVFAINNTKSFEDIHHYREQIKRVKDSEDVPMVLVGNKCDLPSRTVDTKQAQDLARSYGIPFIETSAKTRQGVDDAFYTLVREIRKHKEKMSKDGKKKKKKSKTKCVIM

Cc1nc2c(F)c(-c3cccc(Cl)c3Cl)c(CCC#N)cc2c2c1cc([C@H]1[C@H]3C[C@H](CN(c4cccc(C(F)F)n4)C3)N1C(=O)C1CC1)n2[C@H]1[C@H]2CN[C@@H]1C2 (atropisomer, axis not shown; (Ra)) [Example 88, 3-((Ra)-1-((1R,4R,5S)-2-azabicyclo[2.1.1]hexan-5-yl)-2-((1S,5R,7R)-6-(cyclopropanecarbonyl)-3-(6-(difluoromethyl)pyridin-2-yl)-3,6-diazabicyclo[3.2.1]octan-7-yl)-7-(2,3-dichlorophenyl)-6-fluoro-4-methyl-1H-pyrrolo[3,2-c]quinolin-8-yl)propanenitrile]
G12D_exchange (KRAS_G12D exchange assay IC50) (KRAS G12D): † | G12V_exchange (KRAS_G12V exchange assay IC50) (KRAS G12V): † | Papp A→B at 120 min, 50 μM [1]: ≤ 0.5 ×10⁻⁶ cm/s

Cc1nc2c(F)c(-c3cccc(Cl)c3Cl)c(CCC#N)cc2c2c1cc([C@H]1[C@H]3C[C@H](CN(c4ccccc4)C3)N1C(=O)C1CC1)n2[C@H]1[C@H]2CN[C@@H]1C2 (atropisomer, axis not shown; (Ra)) [Example 1, 3-((Ra)-1-((1R,4R,5S)-2-Azabicyclo[2.1.1]hexan-5-yl)-2-((1 S,5R,7R)-6-(cyclopropanecarbonyl)-3-phenyl-3,6-diazabicyclo[3.2.1]octan-7-yl)-7-(2,3-dichlorophenyl)-6-fluoro-4-methyl-1H-pyrrolo[3,2-c]quinolin-8-yl)propanenitrile]
G12D_exchange (KRAS_G12D exchange assay IC50) (KRAS G12D): †† | G12V_exchange (KRAS_G12V exchange assay IC50) (KRAS G12V): † | Papp A→B at 120 min, 50 μM [1]: ≤ 0.5 ×10⁻⁶ cm/s

COCCOc1cc(N2C[C@@H]3C[C@H](C2)N(C(=O)C2CC2)[C@H]3c2cc3c(C)nc4c(F)c(-c5cccc(Cl)c5Cl)c(CCC#N)cc4c3n2[C@H]2[C@H]3CN[C@@H]2C3)ccn1 (atropisomer, axis not shown; (Ra)) [Example 83, 3-((Ra)-1-((1R,4R,5S)-2-azabicyclo[2.1.1]hexan-5-yl)-2-((1S,5R,7R)-6-(cyclopropanecarbonyl)-3-(2-(2-methoxyethoxy)pyridin-4-yl)-3,6-diazabicyclo[3.2.1]octan-7-yl)-7-(2,3-dichlorophenyl)-6-fluoro-4-methyl-1H-pyrrolo[3,2-c]quinolin-8-yl)propanenitrile]
G12D_exchange (KRAS_G12D exchange assay IC50) (KRAS G12D): † | G12V_exchange (KRAS_G12V exchange assay IC50) (KRAS G12V): † | Papp A→B at 120 min, 50 μM [1]: ≤ 0.5 ×10⁻⁶ cm/s

Cc1nc(N2C[C@@H]3C[C@H](C2)N(C(=O)C2CC2)[C@H]3c2cc3c(C)nc4c(F)c(-c5cccc(Cl)c5Cl)c(CCC#N)cc4c3n2[C@H]2[C@H]3CN[C@@H]2C3)sc1C#N (atropisomer, axis not shown; (Ra)) [Example 98, 2-((1S,5R,7R)-7-((Ra)-1-((1R,4R,5S)-2-azabicyclo[2.1.1]hexan-5-yl)-8-(2-cyanoethyl)-7-(2,3-dichlorophenyl)-6-fluoro-4-methyl-1H-pyrrolo[3,2-c]quinolin-2-yl)-6-(cyclopropanecarbonyl)-3,6-diazabicyclo[3.2.1]octan-3-yl)-4-methylthiazole-5-carbonitrile]
G12D_exchange (KRAS_G12D exchange assay IC50) (KRAS G12D): † | G12V_exchange (KRAS_G12V exchange assay IC50) (KRAS G12V): † | Papp A→B at 120 min, 50 μM [1]: ≤ 0.5 ×10⁻⁶ cm/s

Cc1nc2c(F)c(-c3cccc(Cl)c3Cl)c(CCC#N)cc2c2c1cc([C@H]1[C@H]3C[C@H](CN(c4ncc(C(F)(F)F)cn4)C3)N1C(=O)C1CC1)n2[C@H]1[C@H]2CN[C@@H]1C2 (atropisomer, axis not shown; (Ra)) [Example 41, 3-((Ra)-1-((1R,4R,5S)-2-azabicyclo[2.1.1]hexan-5-yl)-2-((1S,5R,7R)-6-(cyclopropanecarbonyl)-3-(5-(trifluoromethyl)pyrimidin-2-yl)-3,6-diazabicyclo[3.2.1]octan-7-yl)-7-(2,3-dichlorophenyl)-6-fluoro-4-methyl-1H-pyrrolo[3,2-c]quinolin-8-yl)propanenitrile]
G12D_exchange (KRAS_G12D exchange assay IC50) (KRAS G12D): † | G12V_exchange (KRAS_G12V exchange assay IC50) (KRAS G12V): † | Papp A→B at 120 min, 50 μM [1]: ≤ 0.5 ×10⁻⁶ cm/s

Cc1nc2c(F)c(-c3cccc(Cl)c3Cl)c(CCC#N)cc2c2c1cc([C@H]1[C@H]3C[C@H](CN(c4ccn(C(F)F)c(=O)c4)C3)N1C(=O)C1CC1)n2[C@H]1[C@H]2CN[C@@H]1C2 (atropisomer, axis not shown; (Ra)) [Example 56, 3-((Ra)-1-((1R,4R,5S)-2-azabicyclo[2.1.1]hexan-5-yl)-2-((1S,5R,7R)-6-(cyclopropanecarbonyl)-3-(1-(difluoromethyl)-2-oxo-1,2-dihydropyridin-4-yl)-3,6-diazabicyclo[3.2.1]octan-7-yl)-7-(2,3-dichlorophenyl)-6-fluoro-4-methyl-1H-pyrrolo[3,2-c]quinolin-8-yl)propanenitrile]
G12D_exchange (KRAS_G12D exchange assay IC50) (KRAS G12D): † | G12V_exchange (KRAS_G12V exchange assay IC50) (KRAS G12V): † | Papp A→B at 120 min, 50 μM [1]: ≤ 0.5 ×10⁻⁶ cm/s

Cc1nc2c(F)c(-c3cccc(Cl)c3Cl)c(CCC#N)cc2c2c1cc([C@H]1[C@H]3C[C@H](CN(c4cccc(F)c4)C3)N1C(=O)C1CC1)n2[C@H]1[C@H]2CN[C@@H]1C2 (atropisomer, axis not shown; (Ra)) [Example 13, 3-((Ra)-1-((1R,4R,5S)-2-azabicyclo[2.1.1]hexan-5-yl)-2-((1S,5R,7R)-6-(cyclopropanecarbonyl)-3-(3-fluorophenyl)-3,6-diazabicyclo[3.2.1]octan-7-yl)-7-(2,3-dichlorophenyl)-6-fluoro-4-methyl-1H-pyrrolo[3,2-c]quinolin-8-yl)propanenitrile]
G12D_exchange (KRAS_G12D exchange assay IC50) (KRAS G12D): † | G12V_exchange (KRAS_G12V exchange assay IC50) (KRAS G12V): † | Papp A→B at 120 min, 50 μM [1]: ≤ 0.5 ×10⁻⁶ cm/s

Cc1nc2c(F)c(-c3cccc(Cl)c3Cl)c(CCC#N)cc2c2c1cc([C@H]1[C@H]3C[C@H](CN(c4nccc(C(F)(F)F)n4)C3)N1C(=O)C1CC1)n2[C@H]1[C@H]2CN[C@@H]1C2 (atropisomer, axis not shown; (Ra)) [Example 43, 3-((Ra)-1-((1R,4R,5S)-2-azabicyclo[2.1.1]hexan-5-yl)-2-((1S,5R,7R)-6-(cyclopropanecarbonyl)-3-(4-(trifluoromethyl)pyrimidin-2-yl)-3,6-diazabicyclo[3.2.1]octan-7-yl)-7-(2,3-dichlorophenyl)-6-fluoro-4-methyl-1H-pyrrolo[3,2-c]quinolin-8-yl)propanenitrile]
G12D_exchange (KRAS_G12D exchange assay IC50) (KRAS G12D): † | G12V_exchange (KRAS_G12V exchange assay IC50) (KRAS G12V): † | Papp A→B at 120 min, 50 μM [1]: ≤ 0.5 ×10⁻⁶ cm/s

Cc1nc2c(F)c(-c3cccc(Cl)c3Cl)c(CCC#N)cc2c2c1cc([C@H]1[C@H]3C[C@H](CN(c4cnn(C)c(=O)c4)C3)N1C(=O)C1CC1)n2[C@H]1[C@H]2CN[C@@H]1C2 (atropisomer, axis not shown; (Ra)) [Example 65, 3-((Ra)-1-((1R,4R,5S)-2-azabicyclo[2.1.1]hexan-5-yl)-2-((1S,5R,7R)-6-(cyclopropanecarbonyl)-3-(1-methyl-6-oxo-1,6-dihydropyridazin-4-yl)-3,6-diazabicyclo[3.2.1]octan-7-yl)-7-(2,3-dichlorophenyl)-6-fluoro-4-methyl-1H-pyrrolo[3,2-c]quinolin-8-yl)propanenitrile]
G12D_exchange (KRAS_G12D exchange assay IC50) (KRAS G12D): † | G12V_exchange (KRAS_G12V exchange assay IC50) (KRAS G12V): † | Papp A→B at 120 min, 50 μM [1]: ≤ 0.5 ×10⁻⁶ cm/s

Cc1nc2c(F)c(-c3cccc(Cl)c3Cl)c(CCC#N)cc2c2c1cc([C@H]1[C@H]3C[C@H](CN(c4ccn5ccnc5c4)C3)N1C(=O)C1CC1)n2[C@H]1[C@H]2CN[C@@H]1C2 (atropisomer, axis not shown; (Ra)) [Example 61, 3-((Ra)-1-((1R,4R,5S)-2-azabicyclo[2.1.1]hexan-5-yl)-2-((1S,5R,7R)-6-(cyclopropanecarbonyl)-3-(imidazo[1,2-a]pyridin-7-yl)-3,6-diazabicyclo[3.2.1]octan-7-yl)-7-(2,3-dichlorophenyl)-6-fluoro-4-methyl-1H-pyrrolo[3,2-c]quinolin-8-yl)propanenitrile]
G12D_exchange (KRAS_G12D exchange assay IC50) (KRAS G12D): † | G12V_exchange (KRAS_G12V exchange assay IC50) (KRAS G12V): † | Papp A→B at 120 min, 50 μM [1]: ≤ 0.5 ×10⁻⁶ cm/s
